What was measured:
[1] = test system: rabbit serum obtained by immunizing a rabbit with the SARS-CoV strain Frankfurt 1; assay type: binding; design: Binding of a rabbit serum to linear peptides / Binding of a rabbit serum to looped peptides / Rabbit serum linear peptides / Rabbit serum looped peptides / Binding of a rabbit serum to linear peptides of protein N of SARS-CoV Urbani (Rabbit serum linear peptides) / Binding of a rabbit serum to looped/cyclic peptides of protein N of SARS-CoV Urbani (Rabbit serum looped peptides): unit not given here
[2] = test system: control sera (pooled serum of ten healthy LUMC hospital workers; commercial negative donor pooled serum from the Dutch bloodbank); assay type: binding, human; design: Binding of Control serum LUMC to linear peptides / Binding of Control serum Blood-bank to linear peptides / Binding of Control serum LUMC to looped peptides / Binding of Control Serum Blood-Bank to Looped peptides / Binding of Control serum LUMC to linear peptides of the protein M of SARS-CoV Urbani / Binding of Control serum Blood-bank to linear peptides of the protein M of SARS-CoV Urbani / Binding of Control serum LUMC to looped peptides of the protein M of SARS-CoV Urbani / Binding of Control Serum Blood-Bank to Looped peptides of the protein M of SARS-CoV Urbani: unit not given here
[3] = test system: recombinant human anti-SARS-CoV antibody 03-018; assay type: binding; design: Binding of antibody 03-018 to linear peptides of the N protein of SARS-CoV Urbani / Binding of antibody 03-018 to looped/cyclic peptides of the N protein of SARS-CoV Urbani: unit not given here
[4] = test system: antibodies in sera from SARS patients (sera 1a, 1b, 2, 6, 37, 62, London, SARS-yellow, SARS-green); assay type: binding, human; design: Binding of serum 6 to linear peptides of protein X1 of SARS-CoV Urbani / Binding of serum 37 to linear peptides of protein X1 of SARS-CoV Urbani / Binding of serum 6 to looped/cyclic peptide (PEPSCAN-ELISA) / Binding of serum 37 to looped/cyclic peptide (PEPSCAN-ELISA) / Binding of serum 37 to looped/cyclic peptides of protein X1 of SARS-CoV Urbani / Binding of serum 6 to linear peptides of protein X2 / Binding of serum 37 to linear peptides of protein X2 / Binding of serum 37 to looped/cyclic peptides of protein X2 of SARS-CoV Urbani / Binding of serum 6 to linear peptides of protein M of SARS-CoV Urbani / Binding of serum 37 to linear peptides of protein M of SARS-CoV Urbani / Binding of serum 6 to looped/cyclic peptides of protein M of SARS-CoV Urbani / Binding of serum 37 to looped/cyclic peptides of protein M of SARS-CoV Urbani / Binding of serum 6 to linear peptides of protein X3 of SARS-CoV Urbani / Binding of serum 37 to linear peptides of protein X3 of SARS-CoV Urbani / Binding of serum 37 to looped/cyclic peptides of protein X3 of SARS-CoV Urbani / Binding of serum 6 to linear peptides of protein X4 of SARS-CoV Urbani / Binding of serum 37 to linear peptides of protein X4 of SARS-CoV Urbani / Binding of serum 37 to looped/cyclic peptides of protein X4 of SARS-CoV Urbani / Binding of serum 6 to linear peptides of protein X5 of SARS-CoV Urbani / Binding of serum 37 to linear peptides of protein X5 of SARS-CoV Urbani / Binding of serum 37 to looped/cyclic peptides of protein X5 of SARS-CoV Urbani / Binding of serum 6 to linear peptides of protein N of SARS-CoV Urbani / Binding of serum 37 to linear peptides of protein N of SARS-CoV Urbani / Binding of serum 6 to linear peptide (PEPSCAN-ELISA) / Binding of serum 1a to looped/cyclic peptides of protein N of SARS-CoV Urbani / Binding of serum 1b to looped/cyclic peptides of protein N of SARS-CoV Urbani / Binding of serum 2 to looped/cyclic peptides of protein N of SARS-CoV Urbani / Binding of serum 6 to looped/cyclic peptides of protein N of SARS-CoV Urbani / Binding of serum 37 to looped/cyclic peptides of protein N of SARS-CoV Urbani / Binding of serum 62 to looped/cyclic peptides of protein N of SARS-CoV Urbani / Binding of serum London to looped/cyclic peptides of protein N of SARS-CoV Urbani / Binding of serum SARS-green to looped/cyclic peptides of protein N of SARS-CoV Urbani: unit not given here

| Sequence | Binding of a rabbit serum to linear peptides of protein N of SARS-CoV Urbani (Rabbit serum linear peptides) [1] | Binding of a rabbit serum to looped/cyclic peptides of protein N of SARS-CoV Urbani (Rabbit serum looped peptides) [1] | Binding of Control Serum Blood-Bank to Looped peptides [2] | Binding of Control serum Blood-bank to linear peptides [2] | Binding of Control serum LUMC to linear peptides [2] | Binding of Control serum LUMC to looped peptides [2] | Binding of antibody 03-018 to linear peptides of the N protein of SARS-CoV Urbani [3] | Binding of antibody 03-018 to looped/cyclic peptides of the N protein of SARS-CoV Urbani [3] | Binding of serum 1a to linear peptide (PEPSCAN-ELISA) [4] | Binding of serum 1a to looped/cyclic peptides of protein N of SARS-CoV Urbani [4] | Binding of serum 1b to linear peptide (PEPSCAN-ELISA) [4] | Binding of serum 1b to looped/cyclic peptides of protein N of SARS-CoV Urbani [4] | Binding of serum 2 to linear peptide (PEPSCAN-ELISA) [4] | Binding of serum 2 to looped/cyclic peptides of protein N of SARS-CoV Urbani [4] | Binding of serum 6 to looped/cyclic peptides of protein N of SARS-CoV Urbani [4] | Binding of serum 37 to looped/cyclic peptides of protein N of SARS-CoV Urbani [4] | Binding of serum 62 to looped/cyclic peptides of protein N of SARS-CoV Urbani [4] | Binding of serum London to looped/cyclic peptides of protein N of SARS-CoV Urbani [4] | Binding of serum SARS-green to looped/cyclic peptides of protein N of SARS-CoV Urbani [4] | Binding of serum SARS-yellow to looped/cyclic peptides of protein N of SARS-CoV Urbani [4] | further results |
| --- | --- | --- | --- | --- | --- | --- | --- | --- | --- | --- | --- | --- | --- | --- | --- | --- | --- | --- | --- | --- | --- |
| ASSRSSSRSRGNSRN | 0.3 | 0.7 | 0.6 | 0.6 | 0.7 | 0.6 | 0.1 | 0.2 | 0.2 | 0.3 | 0.1 | 0.2 | 0.2 | 0.4 | 0.3 | 0.6 | 0.5 | 0.4 | 0.2 | 0.4 | Binding of serum 6 to linear peptide (PEPSCAN-ELISA) [4]: 0.2; Binding of serum 37 to linear peptide (PEPSCAN-ELISA) [4]: 0.6; Binding of serum 62 to linear peptide (PEPSCAN-ELISA) [4]: 0.5; Binding of serum London to linear peptide (PEPSCAN-ELISA) [4]: 0.5; Binding of serum SARS-green to linear peptide (PEPSCAN-ELISA) [4]: 0.3; Binding of serum SARS-yellow to linear peptide (PEPSCAN-ELISA) [4]: 0.7 |
| NVTQAFGRRGPEQTQ |  |  | 0.5 | 0.7 | 0.7 | 0.5 | 0.1 | 0.2 | 0.2 | 0.3 | 0.1 | 0.2 | 0.2 | 0.3 | 0.2 | 0.5 | 0.4 | 0.4 | 0.3 | 0.3 | Recognition of the peptide by the rabbit serum [1]: recognized; Binding of serum 6 to linear peptide (PEPSCAN-ELISA) [4]: 0.2; Binding of serum 37 to linear peptide (PEPSCAN-ELISA) [4]: 0.6; Binding of serum 62 to linear peptide (PEPSCAN-ELISA) [4]: 0.7; Binding of serum London to linear peptide (PEPSCAN-ELISA) [4]: 0.5; Binding of serum SARS-green to linear peptide (PEPSCAN-ELISA) [4]: 0.5; Binding of serum SARS-yellow to linear peptide (PEPSCAN-ELISA) [4]: 0.6 |
| FGRRGPEQTQGNFGD | 0.2 | 0.0 | 0.4 | 0.7 | 0.6 | 0.3 | 0.1 | 0.1 |  | 0.3 |  | 0.1 |  | 0.2 | 0.1 | 0.4 | 0.1 | 0.2 | 0.2 | 0.2 | Recognition of the peptide by sera of SARS-CoV infected individuals, and form (linear, looped/cyclic) in which it is recognized [4]: recognized in linear form |
| PQRQKKQPTVTLLPA | 0.2 | 0.7 |  |  |  |  | 0.1 | 0.3 |  |  |  |  |  |  |  |  |  |  |  |  | Control Serum Blood-Bank Looped peptides [2]: 0.9; Control serum Blood-bank linear peptides [2]: 0.8; Control serum LUMC linear peptides [2]: 0.7; Control serum LUMC looped peptides [2]: 0.7; Binding of serum 1a to linear peptides of protein N of SARS-CoV Urbani [4]: 0.3; Binding of serum 1b to linear peptides of protein N of SARS-CoV Urbani [4]: 0.2; Binding of serum 2 to linear peptides of protein N of SARS-CoV Urbani [4]: 0.3; Binding of serum 6 to linear peptides of protein N of SARS-CoV Urbani [4]: 0.2; Binding of serum 37 to linear peptides of protein N of SARS-CoV Urbani [4]: 0.7; Binding of serum 62 to linear peptides of protein N of SARS-CoV Urbani [4]: 0.7; Binding of serum London to linear peptides of protein N of SARS-CoV Urbani [4]: 0.5; Binding of serum SARS-green to linear peptides of protein N of SARS-CoV Urbani [4]: 0.5; Binding of serum SARS-yellow to linear peptides of protein N of SARS-CoV Urbani [4]: 0.6; Recognition of the peptide by sera of SARS-CoV infected individuals, and form (linear, looped/cyclic) in which it is recognized [4]: recognized in looped/cyclic form |
| GDGKMKELSPRWYFY | 0.2 | 0.6 | 0.7 | 0.6 | 0.6 | 0.8 | 0.1 | 0.2 |  | 0.4 |  | 0.3 |  | 0.6 | 0.3 | 0.7 | 0.6 | 0.5 | 0.5 | 0.7 | Binding of serum 1a to linear peptides of protein N of SARS-CoV Urbani [4]: 0.2; Binding of serum 1b to linear peptides of protein N of SARS-CoV Urbani [4]: 0.1; Binding of serum 2 to linear peptides of protein N of SARS-CoV Urbani [4]: 0.2; Binding of serum 6 to linear peptides of protein N of SARS-CoV Urbani [4]: 0.1; Binding of serum 37 to linear peptides of protein N of SARS-CoV Urbani [4]: 0.5; Binding of serum 62 to linear peptides of protein N of SARS-CoV Urbani [4]: 0.6; Binding of serum London to linear peptides of protein N of SARS-CoV Urbani [4]: 0.4; Binding of serum SARS-green to linear peptides of protein N of SARS-CoV Urbani [4]: 0.3; Binding of serum SARS-yellow to linear peptides of protein N of SARS-CoV Urbani [4]: 0.6 |

From US20070128217A1 (priority 2003, published 2007)
